Data reported in paper PMC10275055, “Preventing recurrence in Sonic Hedgehog Subgroup Medulloblastoma using the OLIG2 inhibitor CT-179” (Research Square, 2023).
Like-named read-outs stand apart in the source and are kept apart here.

Key:
[1] = target: T1, Fetal Liver Tyrosine Kinase 3 (FLT3) (Homo sapiens, UniProt P36888); experiment: Kinase profiling (KINOMEscan / SelectScreen) and dose response follow-up, FLT3; type: biochemical; details: ATP equal to Km
T1 sequence (P36888 27-993): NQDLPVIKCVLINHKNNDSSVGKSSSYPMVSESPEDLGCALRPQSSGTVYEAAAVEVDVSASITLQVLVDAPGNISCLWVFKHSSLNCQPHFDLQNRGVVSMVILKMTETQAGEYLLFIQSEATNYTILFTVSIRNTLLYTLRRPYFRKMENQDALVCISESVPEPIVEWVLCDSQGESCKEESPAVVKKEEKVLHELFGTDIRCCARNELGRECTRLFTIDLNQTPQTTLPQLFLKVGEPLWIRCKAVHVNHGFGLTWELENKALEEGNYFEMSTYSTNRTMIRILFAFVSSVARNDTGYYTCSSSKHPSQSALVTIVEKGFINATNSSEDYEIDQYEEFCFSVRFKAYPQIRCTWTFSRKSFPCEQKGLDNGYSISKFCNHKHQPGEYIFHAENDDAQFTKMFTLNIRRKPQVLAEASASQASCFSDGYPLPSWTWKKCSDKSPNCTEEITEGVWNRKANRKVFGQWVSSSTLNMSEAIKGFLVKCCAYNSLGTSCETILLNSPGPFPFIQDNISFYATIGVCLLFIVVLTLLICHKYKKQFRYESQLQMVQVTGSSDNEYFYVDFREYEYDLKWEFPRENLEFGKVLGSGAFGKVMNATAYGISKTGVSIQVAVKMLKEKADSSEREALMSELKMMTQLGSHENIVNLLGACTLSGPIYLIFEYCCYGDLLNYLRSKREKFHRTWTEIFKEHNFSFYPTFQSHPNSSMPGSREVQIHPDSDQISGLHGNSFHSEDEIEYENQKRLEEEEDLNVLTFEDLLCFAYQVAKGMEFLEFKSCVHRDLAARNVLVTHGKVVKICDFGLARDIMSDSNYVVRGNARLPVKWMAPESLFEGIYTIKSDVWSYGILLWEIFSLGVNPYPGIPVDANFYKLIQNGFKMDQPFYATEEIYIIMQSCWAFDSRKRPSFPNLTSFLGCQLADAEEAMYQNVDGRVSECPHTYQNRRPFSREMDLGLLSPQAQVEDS
Description: (§1) Effect of CT-179 on protein kinase activity was evaluated using the Thermofisher Scientific SelectScreen Kinase Profiling Service. Over 400 human protein kinases were tested in the presence of 1 μM final concentration of CT-179 at an ATP concentration equal to the known ATP Km for each kinase. The experiment was done by Curtana Pharmaceuticals. Data is presented as percentage of inhibition of enzyme activity. Software CORAL was used to make the kinome tree, which is available from: http://phanstiel-lab.med.unc.edu/CORAL/.

KIT = KIT (Homo sapiens, UniProt P10721); experiment: Kinase profiling (KINOMEscan / SelectScreen), KIT; type: biochemical; details: ATP equal to Km
Description: as §1

UW228 MB cell line = experiment: Cell viability, 7 days treatment, UW228; type: cell-based; details: Homo sapiens, 168 h; UW228, 7 days
Description: (§2) Cell proliferation was determined by a CellTiter 96® Non-Radioactive Cell Proliferation Assay (Promega) kit. Absorbance at 490 nm was measured on a Biotek PowerWave (Biotek, USA) plate scanner to obtain raw data. Average absorbance from triplicate wells were plotted against concentration using GraphPad Prism software v.7.0 (GraphPad software). At the indicated time points, cells were stained using FITC-conjugated Annexin V and Annexin V binding buffer (BD Pharmingen™) according to the manufacturer’s instructions. Annexin V or propidium iodide (PI)-positive cells were analyzed using a Fortessa 5 Flow Cytometer (Becton Dickinson) and data was analyzed using FlowJo® software (Tree Star).

Med-813 MB cell line = experiment: Cell viability, 7 days treatment, Med-813; type: cell-based; details: Homo sapiens, 168 h; Med-813, 7 days
Description: as §2

U87-MG glioma cells = experiment: Cell viability, OLIG2-negative U87-MG; type: cell-based; details: does not express OLIG2
Description: as §2

[2] = G-Smo GEM model of SHH-MB: tolerability, pharmacodynamics, survival; type: in vivo, mice; details: mouse, in vivo, ip, read-out: maximum tolerated dose (MTD)
Description: (§3) Medulloblastoma-bearing mice were maintained at UNC in accordance with UNC IACUC protocols 19–098 and 21–011 and at QIMR under protocol 1572 and 2324. Specimens were examined by a neuropathologist to verify tumor type and grade.
(§4) Post-natal P10 G-Smo mice were injected IP with CT-179 (80 mg/kg), or POx-Palbo (25 mg/kg, every day from P10 to P13), or combination (CT-179 + POx-Palbo, EOD from P14) or saline control solution and tumors were harvested after 6 or 24 hours. EdU (40 mg/kg) was administered IP 30 minutes before harvest. Tumors were dissociated using the Worthington Papain Dissociation System Kit, then fixed for 15 minutes on ice and washed with FACS Wash buffer (2% FBS in PBS). Fixed cells were stained with fluorophore markers for DNA (FX Cycle stain, Thermo Fisher Scientific), EdU (Click-it Edu Kit, Thermo Fisher Scientific), and phospho-RB content (phospho-RB^Ser807/811, Cell Signalling Technology) as previously described. Stained cells were resuspended in sheath fluid and ran on LSR II flow cytometer for 50000 events at the UNC Flow Cytometry core, using appropriate compensation controls and analyzed using FlowJo® software (Tree Star).
(§5) Brains including tumors from G-Smo mice were harvested, fixed in 4% paraformaldehyde for 48 hours, and embedded in paraffin at the UNC Centre for Gastrointestinal Biology and Disease Histology core. Sections were deparaffinised, and antigen retrieval was performed using a low-pH citric acid-based buffer. Staining was performed and stained slides were digitally scanned using the Leica Biosystems Aperio ImageScope software (12.3.3) by the UNC Translational Pathology Laboratory, as in prior studies. The primary antibodies used were anti-NeuN (Cell Signalling Technology) anti-OLIG2 (Cell Marque) and anti-SOX10 (Cell Signalling Technology) and anti-cleaved caspase-3 (Biocare).
(§6) In vitro experiments - all data represent the means ± standard deviation (SD) or standard error of the mean (SEM) as indicated. Where appropriate, two-tailed Student’s t-test or ANOVA were used to determine the probability of difference (*p < 0.05, ** p < 0.01, ***p < 0.001). In vivo experiments - the log-rank (Mantel-Cox) test was used to determine the survival significance of survival differences between treatment groups (*p < 0.05, ** p < 0.01, ***p < 0.001). Kaplan-Meier survival curves were generated using GraphPad Prism v. 7.0 software (GraphPad software).

[3] = tested on: SHH-MB in Gfap-Cre/SmoM2 (G-Smo) mice; experiment: as above; type: in vivo
Description: as §3, §4, §5, §6

[4] = 80 mg/kg at P10, P12, P14 and P16, 24 hours after last dose

Chain of KIT (P10721 26-976): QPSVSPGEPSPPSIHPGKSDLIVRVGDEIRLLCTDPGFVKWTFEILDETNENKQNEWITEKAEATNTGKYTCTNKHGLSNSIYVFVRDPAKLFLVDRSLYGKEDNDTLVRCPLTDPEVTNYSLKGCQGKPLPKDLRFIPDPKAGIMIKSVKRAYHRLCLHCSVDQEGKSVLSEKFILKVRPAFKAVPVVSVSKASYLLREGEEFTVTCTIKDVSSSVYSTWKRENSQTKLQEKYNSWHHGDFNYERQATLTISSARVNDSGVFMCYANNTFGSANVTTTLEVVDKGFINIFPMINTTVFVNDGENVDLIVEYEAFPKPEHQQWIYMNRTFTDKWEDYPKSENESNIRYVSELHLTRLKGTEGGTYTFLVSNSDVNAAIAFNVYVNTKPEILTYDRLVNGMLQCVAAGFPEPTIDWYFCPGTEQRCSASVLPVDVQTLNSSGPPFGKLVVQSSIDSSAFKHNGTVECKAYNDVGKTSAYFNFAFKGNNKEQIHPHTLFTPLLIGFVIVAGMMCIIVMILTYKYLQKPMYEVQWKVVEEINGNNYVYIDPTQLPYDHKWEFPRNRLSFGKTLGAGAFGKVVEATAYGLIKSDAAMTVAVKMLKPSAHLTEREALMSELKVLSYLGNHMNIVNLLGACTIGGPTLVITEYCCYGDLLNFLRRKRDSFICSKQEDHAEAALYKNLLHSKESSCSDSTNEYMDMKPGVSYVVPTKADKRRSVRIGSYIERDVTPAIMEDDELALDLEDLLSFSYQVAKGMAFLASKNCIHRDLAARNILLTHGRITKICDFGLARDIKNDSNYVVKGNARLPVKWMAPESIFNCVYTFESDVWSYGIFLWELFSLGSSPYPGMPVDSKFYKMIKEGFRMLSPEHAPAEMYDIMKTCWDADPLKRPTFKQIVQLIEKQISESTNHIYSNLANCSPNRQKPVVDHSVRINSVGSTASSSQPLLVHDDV

Cc1cc(NCCCN(C)C)nc(NC(=O)Nc2ccc(Cl)c(Cl)c2)n1 [CT-179]
inhibition at 1 µM [1]: 84%
inhibition at 1 µM (KIT): 66%
IC50 (UW228 MB cell line): 285 nM
IC50 (Med-813 MB cell line): 965 nM
growth suppression (U87-MG glioma cells): not suppressed
MTD ([2]; EOD): 80 mg/kg
MTD ([2]; every three days): 100 mg/kg
p-OLIG2 in tumors, western blot [3, 4]: decreased p-OLIG2
p-RB in tumors, western blot [3, 4]: reduced p-RB
EFS versus control ([3]; IP 80 mg/kg EOD, 80 mg/kg every three days, or 100 mg/kg every three days, from P10): significantly improved EFS
BLI signal in G-Smo Gli-luc mice ([3]; administered every three days): dose-dependent decrease in BLI signal
